Results published in paper PMC3479967 (Evidence-based Complementary and Alternative Medicine : eCAM, 2012).

Legend:
[1] = molecular target: T1, UGT1A1 (Homo sapiens, UniProt P22309); experiment: Inhibition of recombinant UGT1A1 activity (4-MU glucuronidation)
T1 sequence (P22309 26-533): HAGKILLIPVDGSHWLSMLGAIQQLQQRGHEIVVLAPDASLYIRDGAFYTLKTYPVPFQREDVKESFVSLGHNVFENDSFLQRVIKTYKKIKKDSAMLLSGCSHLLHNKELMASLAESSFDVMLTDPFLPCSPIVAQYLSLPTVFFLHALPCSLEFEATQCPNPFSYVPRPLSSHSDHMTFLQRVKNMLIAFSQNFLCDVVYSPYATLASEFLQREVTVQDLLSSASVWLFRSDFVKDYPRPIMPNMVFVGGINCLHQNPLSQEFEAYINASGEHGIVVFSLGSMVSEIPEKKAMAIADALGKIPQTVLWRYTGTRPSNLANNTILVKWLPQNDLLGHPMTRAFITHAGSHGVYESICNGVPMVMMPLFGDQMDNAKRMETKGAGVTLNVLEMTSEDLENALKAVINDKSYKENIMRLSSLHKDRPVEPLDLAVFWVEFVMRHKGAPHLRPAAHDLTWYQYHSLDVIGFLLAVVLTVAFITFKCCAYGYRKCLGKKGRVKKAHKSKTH
Method: (§1) A panel of recombinant human UGT supersomes (UGT1A1, UGT1A3, UGT1A4, UGT1A6, UGT1A7, UGT1A8, UGT1A9, UGT1A10, UGT2B4, UGT2B7, UGT2B15, and UGT2B17) expressed in baculovirus-infected insect cells were purchased from BD Gentest Corp. (Woburn, MA, USA).
(§2) 4-MU, a nonselective substrate of UGTs, was used as probe substrate for all UGTs except UGT1A4. Incubations with each individual enzyme were conducted using conditions previously described. There was a 5 min preincubation step at 37°C before the reaction was started by addition of UDPGA. The incubation mixtures were then centrifuged at 20,500 ×g for 15 min to obtain the supernatant. Aliquots (20 μL) were then analyzed by HPLC. The HPLC system (SHIMADZU, Kyoto, Japan) consisted of an SCL-10A system controller, two LC-10AT pumps, a SIL-10A auto injector, and a SPD-10AVP UV detector. Chromatographic separation was achieved using a Kromasil ODS column (4.6 × 150 mm I.D., 5 μm particle size) at a flow rate of 1 mL/min and UV detection at 316 nm. The mobile phase consisted of 10 mM KH2PO4, pH 2.7 (A) and acetonitrile (B). The following gradient was applied at a flow rate of 1 mL/min: 0–4 min 80% A and 20% B, 4.1–8 min 50% A and 50% B, 8.1–12 min, 30% A and 70% B. All experiments were performed in two independent experiments in duplicate.
(§3) A typical incubation mixture contained recombinant human UGTs, 5 mM MgCl2, 5 mM UDPGA, 50 μg/mg protein alamethicin, 50 mM Tris-HCl buffer (pH 7.4), and various probe substrates of UGTs in the absence or presence of different concentrations of inhibitors. […] The final concentration of DMSO in the incubation system was 1% (v/v). […]
(§4) Inhibition data from experiments were graphically represented by Dixon plots. K i values were calculated by nonlinear regression using the equations for competitive inhibition (1), noncompetitive inhibition (2), or mixed inhibition (3), [22] […] The type of inhibition was determined from the enzyme inhibition models. Goodness of fit to kinetic and inhibition models was assessed from the F statistic, r ^2 values, parameter standard error estimates, and 95% confidence intervals. […]

[2] = molecular target: T2, UGT2B15 (Homo sapiens, UniProt P54855); experiment: Inhibition of recombinant UGT2B15 activity (4-MU glucuronidation)
T2 sequence (P54855 24-530): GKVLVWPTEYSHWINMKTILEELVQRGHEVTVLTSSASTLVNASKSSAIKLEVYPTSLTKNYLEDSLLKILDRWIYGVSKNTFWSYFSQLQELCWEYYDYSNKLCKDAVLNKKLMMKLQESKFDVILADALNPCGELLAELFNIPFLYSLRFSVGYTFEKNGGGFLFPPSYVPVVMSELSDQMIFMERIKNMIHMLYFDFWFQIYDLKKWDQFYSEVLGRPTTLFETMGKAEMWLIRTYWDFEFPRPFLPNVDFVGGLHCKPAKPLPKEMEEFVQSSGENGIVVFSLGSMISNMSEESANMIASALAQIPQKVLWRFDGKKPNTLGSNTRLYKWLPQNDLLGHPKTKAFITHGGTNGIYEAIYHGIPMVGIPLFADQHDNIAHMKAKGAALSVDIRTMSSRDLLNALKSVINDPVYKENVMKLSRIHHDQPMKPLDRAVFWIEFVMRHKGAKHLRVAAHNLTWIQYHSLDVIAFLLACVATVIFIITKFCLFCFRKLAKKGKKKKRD
Method: as §1, §2, §3, §4

| IC50 [1] | IC50 [2] | Compound |
| --- | --- | --- |
| > 100 µM | > 100 µM | COc1ccc(-c2oc3c(CC=C(C)C)c(O[C@@H]4O[C@H](CO)[C@@H](O)[C@H](O)[C@H]4O)cc(O)c3c(=O)c2O)cc1 [Icariside I] |
| > 100 µM | > 100 µM | COc1ccc(-c2oc3c(CC=C(C)C)c(O)cc(O)c3c(=O)c2O)cc1 [Icaritin] |

| Compound | IC50 [1] | IC50 [2] |
| --- | --- | --- |
| COc1ccc(-c2oc3c(CC=C(C)C)c(O[C@@H]4O[C@H](CO)[C@@H](O)[C@H](O)[C@H]4O)cc(O)c3c(=O)c2O[C@@H]2O[C@@H](C)[C@H](O)[C@@H](O)[C@H]2O)cc1 [Icariin] | > 100 µM | > 100 µM |
